# Measurements as given in ChEMBL document CHEMBL1156748, “Incorporation of water-solubilizing groups in pyrazolopyrimidine mTOR inhibitors: discovery of highly potent and selective analogs with improved human microsomal stability” (Bioorg Med Chem Lett, 2009).
# Activity calls are given as the source filed them. The rule behind the calls is not given here.
# Legend:
# [1] = Selectivity ratio, IC50 for PI3Kalpha to IC50 for human FLAG-tagged mTOR
# LNCaP = assay: Antiproliferative activity against PTEN deficient human LNCAP cells after 3 days by MTS assay; type: functional, cell-based; details: 72 h
# [2] = Antiproliferative activity against PTEN deficient human MDA468 cells after 3 days by MTS assay; type: functional, cell-based; details: MDA-MB-468, 72 h
# [3] = biological target: Phosphatidylinositol 4,5-bisphosphate 3-kinase catalytic subunit alpha isoform (Homo sapiens, UniProt P42336); assay: Binding affinity to PI3Kalpha by fluorescence polarization assay
# Chain of Phosphatidylinositol 4,5-bisphosphate 3-kinase catalytic subunit alpha isoform (P42336 whole entry, canonical isoform): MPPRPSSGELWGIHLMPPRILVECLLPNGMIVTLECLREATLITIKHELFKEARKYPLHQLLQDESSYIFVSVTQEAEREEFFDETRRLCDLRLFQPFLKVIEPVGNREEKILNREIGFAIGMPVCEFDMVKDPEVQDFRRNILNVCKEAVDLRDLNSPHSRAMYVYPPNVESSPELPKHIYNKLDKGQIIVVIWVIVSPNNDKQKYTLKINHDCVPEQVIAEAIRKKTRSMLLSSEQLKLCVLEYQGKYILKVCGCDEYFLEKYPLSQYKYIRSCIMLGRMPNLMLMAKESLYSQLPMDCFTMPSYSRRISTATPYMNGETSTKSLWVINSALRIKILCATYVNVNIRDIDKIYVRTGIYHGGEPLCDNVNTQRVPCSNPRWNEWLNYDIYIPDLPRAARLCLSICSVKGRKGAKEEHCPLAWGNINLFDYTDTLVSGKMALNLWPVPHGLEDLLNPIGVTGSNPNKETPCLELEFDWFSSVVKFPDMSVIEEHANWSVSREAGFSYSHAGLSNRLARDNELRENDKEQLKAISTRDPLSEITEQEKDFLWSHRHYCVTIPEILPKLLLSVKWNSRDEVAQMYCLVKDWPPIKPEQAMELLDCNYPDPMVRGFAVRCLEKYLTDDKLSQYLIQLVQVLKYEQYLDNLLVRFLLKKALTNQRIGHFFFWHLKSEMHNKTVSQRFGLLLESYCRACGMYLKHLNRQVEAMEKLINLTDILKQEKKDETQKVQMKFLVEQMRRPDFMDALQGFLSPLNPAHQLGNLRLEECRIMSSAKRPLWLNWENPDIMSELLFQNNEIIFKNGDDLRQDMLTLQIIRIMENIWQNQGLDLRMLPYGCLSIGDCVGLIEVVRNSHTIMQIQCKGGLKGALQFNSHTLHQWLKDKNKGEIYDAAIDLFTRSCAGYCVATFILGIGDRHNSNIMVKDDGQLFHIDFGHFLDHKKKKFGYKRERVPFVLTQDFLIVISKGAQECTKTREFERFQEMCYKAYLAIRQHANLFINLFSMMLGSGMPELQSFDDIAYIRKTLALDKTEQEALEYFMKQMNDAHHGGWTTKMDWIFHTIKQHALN
# [4] = Metabolic stability in human microsomes assessed as half life; type: ADME, Microsome
# [5] = biological target: Serine/threonine-protein kinase mTOR (Homo sapiens, UniProt P42345); assay: Inhibition of human FLAG-tagged mTOR expressed in HEK293 cells after 2 hrs by DELFIA; type: cell-based
# [6] = Solubility at pH 3; type: physicochemical; details: buffer
# [7] = Clearance in nude mouse at 5 mg/kg, iv; type: ADME, organism-based; design: dose 5 mg/kg, route intravenous; details: in vivo
# [8] = Half life in nude mouse at 5 mg/kg, iv; type: ADME, organism-based; design: dose 5 mg/kg, route intravenous; details: in vivo
# [9] = Volume of distribution at steady state in nude mouse at 5 mg/kg, iv; type: ADME, organism-based; design: dose 5 mg/kg, route intravenous; details: in vivo, read-out: Vdss
# [10] = Plasma concentration in nude mouse at 25 mg/kg, iv after 8 hrs; type: ADME, organism-based; design: dose 25 mg/kg, route intravenous
# [11] = biological target: Phosphatidylinositol 4,5-bisphosphate 3-kinase catalytic subunit beta isoform (Homo sapiens, UniProt P42338); assay: Inhibition of PI3Kbeta
# Chain of Phosphatidylinositol 4,5-bisphosphate 3-kinase catalytic subunit beta isoform (P42338 whole entry, canonical isoform): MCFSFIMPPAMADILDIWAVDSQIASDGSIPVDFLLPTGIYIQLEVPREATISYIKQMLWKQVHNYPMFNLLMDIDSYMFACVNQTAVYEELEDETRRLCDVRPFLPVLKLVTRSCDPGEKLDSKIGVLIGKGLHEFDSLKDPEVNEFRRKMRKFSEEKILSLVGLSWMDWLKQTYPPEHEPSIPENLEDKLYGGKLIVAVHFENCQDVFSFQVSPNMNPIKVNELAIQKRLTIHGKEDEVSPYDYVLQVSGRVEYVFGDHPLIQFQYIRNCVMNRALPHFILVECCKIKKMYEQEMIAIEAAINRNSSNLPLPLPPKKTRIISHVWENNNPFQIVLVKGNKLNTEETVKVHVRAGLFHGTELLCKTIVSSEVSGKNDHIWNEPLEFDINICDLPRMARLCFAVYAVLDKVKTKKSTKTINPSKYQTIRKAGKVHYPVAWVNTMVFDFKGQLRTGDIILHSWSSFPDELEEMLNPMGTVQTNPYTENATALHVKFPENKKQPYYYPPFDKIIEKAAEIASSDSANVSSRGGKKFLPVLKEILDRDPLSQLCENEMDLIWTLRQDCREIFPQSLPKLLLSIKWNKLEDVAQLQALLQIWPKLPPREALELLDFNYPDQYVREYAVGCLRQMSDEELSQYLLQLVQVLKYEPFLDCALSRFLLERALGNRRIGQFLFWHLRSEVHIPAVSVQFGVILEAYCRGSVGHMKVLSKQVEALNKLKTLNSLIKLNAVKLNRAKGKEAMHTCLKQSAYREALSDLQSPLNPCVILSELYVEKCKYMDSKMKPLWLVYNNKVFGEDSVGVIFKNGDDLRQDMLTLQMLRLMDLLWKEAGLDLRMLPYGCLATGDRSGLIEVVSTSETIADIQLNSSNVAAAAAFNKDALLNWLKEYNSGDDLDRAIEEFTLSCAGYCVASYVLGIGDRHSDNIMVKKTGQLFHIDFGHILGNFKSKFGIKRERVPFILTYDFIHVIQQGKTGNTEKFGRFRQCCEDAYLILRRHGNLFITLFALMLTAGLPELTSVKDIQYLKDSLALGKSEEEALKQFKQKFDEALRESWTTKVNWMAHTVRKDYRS
# Mus musculus [12] = assay: Toxicity in nude mouse xenografted with human MDA-MB-361 cells at 10 to 25 mg/kg, iv administered daily; type: organism-based; design: dose 10-25 mg/kg, route intravenous; details: in vivo
# [13] = Metabolic stability in mouse microsomes assessed as half life; type: ADME, Microsome
# [14] = AUC in nude mouse at 5 mg/kg, iv; type: ADME, organism-based; design: dose 5 mg/kg, route intravenous; details: plasma
# Mus musculus [15] = assay: Inhibition of TORC2 in human MDA-MB-361 cells xenografted nude mouse assessed as p-AKT S473 level at 25 mg/kg, iv; type: functional, organism-based; design: dose 25 mg/kg
# MDA-MB-361 [16] = assay: Inhibition of mTORC2 in human MDA-MB-361 cells assessed as phosphorylated AKT S473 level at 25 nM
# MDA-MB-361 [17] = assay: Antitumor activity against human MDA-MB-361 cells xenografted in nude mouse assessed as inhibition of tumor growth at 20 mg/kg, iv every 5 days for 21 days; type: functional, organism-based; design: dose 20 mg/kg
# Mus musculus [18] = assay: Inhibition of TORC1 in human MDA-MB-361 cells xenografted nude mouse assessed as p70-S6K level at 25 mg/kg, iv; type: functional, organism-based; design: dose 25 mg/kg
# Mus musculus [19] = assay: Antitumor activity against human MDA-MB-361 cells xenografted in nude mouse assessed as inhibition of tumor growth at 10 to 25 mg/kg, iv administered daily; type: functional, organism-based
# [20] = biological target: Phosphatidylinositol 4,5-bisphosphate 3-kinase catalytic subunit gamma isoform (Homo sapiens, UniProt P48736); assay: Inhibition of PI3Kgamma
# Chain of Phosphatidylinositol 4,5-bisphosphate 3-kinase catalytic subunit gamma isoform (P48736 whole entry, canonical isoform): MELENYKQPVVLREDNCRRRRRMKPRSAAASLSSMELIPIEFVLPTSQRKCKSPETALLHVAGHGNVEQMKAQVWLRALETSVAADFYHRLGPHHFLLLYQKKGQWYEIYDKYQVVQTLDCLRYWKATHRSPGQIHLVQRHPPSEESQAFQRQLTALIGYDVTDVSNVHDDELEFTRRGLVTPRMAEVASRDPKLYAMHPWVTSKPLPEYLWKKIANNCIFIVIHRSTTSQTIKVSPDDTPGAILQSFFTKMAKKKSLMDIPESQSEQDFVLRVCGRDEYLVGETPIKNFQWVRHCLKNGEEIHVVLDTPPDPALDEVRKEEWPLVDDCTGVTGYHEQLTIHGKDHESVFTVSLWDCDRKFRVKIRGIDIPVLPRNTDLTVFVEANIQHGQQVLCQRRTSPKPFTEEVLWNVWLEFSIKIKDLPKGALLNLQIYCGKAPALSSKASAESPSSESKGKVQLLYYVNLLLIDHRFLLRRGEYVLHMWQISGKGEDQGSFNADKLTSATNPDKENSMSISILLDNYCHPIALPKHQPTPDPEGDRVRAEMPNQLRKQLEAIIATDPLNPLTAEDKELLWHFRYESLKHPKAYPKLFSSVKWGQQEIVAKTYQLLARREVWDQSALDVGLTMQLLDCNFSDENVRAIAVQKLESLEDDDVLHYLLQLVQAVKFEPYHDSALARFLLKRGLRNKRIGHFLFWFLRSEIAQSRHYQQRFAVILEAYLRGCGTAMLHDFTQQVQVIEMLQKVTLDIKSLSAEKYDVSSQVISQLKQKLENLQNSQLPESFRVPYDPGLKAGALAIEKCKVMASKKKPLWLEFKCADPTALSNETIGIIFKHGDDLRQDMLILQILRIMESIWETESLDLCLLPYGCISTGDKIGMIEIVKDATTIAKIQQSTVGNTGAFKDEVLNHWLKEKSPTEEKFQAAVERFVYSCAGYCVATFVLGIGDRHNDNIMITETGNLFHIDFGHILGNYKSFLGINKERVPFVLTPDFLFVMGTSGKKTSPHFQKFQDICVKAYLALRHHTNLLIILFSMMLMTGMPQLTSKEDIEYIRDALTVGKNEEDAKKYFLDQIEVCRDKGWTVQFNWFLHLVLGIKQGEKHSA
SMILES,Ratio IC50 [1],IC50 (LNCaP),IC50 [2],IC50 [3],half-life [4],IC50 [5],also measured
CCNC(=O)Nc1ccc(-c2nc(N3CC4CCC(C3)O4)c3cnn(CCN(C)C)c3n2)cc1,240,280 nM,1800 nM,–,–,–,–
CCn1ncc2c(N3CC4CCC(C3)O4)nc(-c3ccc(NC(=O)Nc4ccc(N(C)C)nc4)cc3)nc21,282,6 nM,80 nM,282 nM,–,–,–
CCn1ncc2c(N3CC4CCC(C3)O4)nc(-c3ccc(NC(=O)Nc4cccnc4)cc3)nc21,1120,< 0.8 nM,1.2 nM,148 nM,4 min,0.1 nM,–
CCn1ncc2c(N3CC4CCC(C3)O4)nc(-c3ccc(NC(=O)Nc4ccc(C(=O)NN5CCCC5)cc4)cc3)nc21,586,< 0.7 nM,4 nM,–,> 30 min,0.2 nM,–
CCn1ncc2c(N3CC4CCC(C3)O4)nc(-c3ccc(NC(=O)Nc4ccc(N5CCOCC5)cc4)cc3)nc21,972,< 0.7 nM,< 0.7 nM,–,6 min,0.2 nM,–
CCn1ncc2c(N3CC4CCC(C3)O4)nc(-c3ccc(NC(=O)Nc4ccc(CCO)cc4)cc3)nc21,570,< 0.7 nM,< 0.7 nM,–,10 min,0.1 nM,–
CCn1ncc2c(N3CC4CCC(C3)O4)nc(-c3ccc(NC(=O)Nc4ccc(NCCN(C)C)cc4)cc3)nc21,122,2.8 nM,7 nM,207 nM,14 min,1.7 nM,–
CCNC(=O)Nc1ccc(-c2nc(N3CC4CCC(C3)O4)c3cnn(CC)c3n2)cc1,2230,16 nM,80 nM,–,–,0.6 nM,–
O=C(Nc1ccc(-c2nc(N3CC4CCC(C3)O4)c3cnn(CC(F)(F)F)c3n2)cc1)Nc1ccc(N2CCNCC2)cc1,318,< 0.8 nM,1 nM,76 nM,–,0.2 nM,–
CCn1ncc2c(N3CC4CCC(C3)O4)nc(-c3ccc(NC(=O)Nc4ccc(C(=O)NN(C)C)cc4)cc3)nc21,350,< 0.7 nM,< 0.7 nM,–,23 min,0.3 nM,–
CCn1ncc2c(N3CC4CCC(C3)O4)nc(-c3ccc(NC(=O)NCCN(C)C)cc3)nc21,16,350 nM,1250 nM,–,–,51 nM,–
CCn1ncc2c(N3CC4CCC(C3)O4)nc(-c3ccc(NC(=O)Nc4ccc(OCCN(C)C)cc4)cc3)nc21,172,< 0.7 nM,8 nM,136 nM,> 30 min,0.8 nM,–
CCn1ncc2c(N3CC4CCC(C3)O4)nc(-c3ccc(NC(=O)Nc4ccccc4)cc3)nc21,212,0.8 nM,12 nM,66 nM,5 min,–,–
CCn1ncc2c(N3CC4CCC(C3)O4)nc(-c3ccc(NC(=O)Nc4ccc(CN)cc4)cc3)nc21,95,< 0.8 nM,< 0.8 nM,21 nM,> 30 min,0.2 nM,–
CCn1ncc2c(N3CC4CCC(C3)O4)nc(-c3ccc(NC(=O)Nc4ccc(N5CCOCC5)nc4)cc3)nc21,7300,0.8 nM,8 nM,–,–,0.3 nM,–
CCn1ncc2c(N3CC4CCC(C3)O4)nc(-c3ccc(NC(=O)Nc4ccc(NC)nc4)cc3)nc21,302,17 nM,200 nM,–,–,–,–
CCn1ncc2c(N3CC4CCC(C3)O4)nc(-c3ccc(NC(=O)Nc4ccc(N5CCN(C)CC5)nc4)cc3)nc21,275,< 0.7 nM,0.8 nM,–,> 30 min,0.7 nM,solubility [6]: > 100 µg/mL
CCn1ncc2c(N3CC4CCC(C3)O4)nc(-c3ccc(NC(=O)Nc4ccc(N5CCN(C)CC5)cc4)cc3)nc21,188,< 0.7 nM,< 0.7 nM,51 nM,> 30 min,0.3 nM,–
CN1CCN(c2ccc(NC(=O)Nc3ccc(-c4nc(N5CC6CCC(C5)O6)c5cnn(CC(F)(F)F)c5n4)cc3)cc2)CC1,237,< 0.8 nM,1.5 nM,150 nM,24 min,0.6 nM,clearance [7]: 7 mL/min/kg; half-life [8]: 174 min; Vd [9]: 1.2 L/kg; concentration at 8 h [10]: 2500 ng/mL; IC50 [11]: > 10000 nM; Activity (Mus musculus [12]): Non-toxic; half-life [13]: > 30 min; AUC [14]: 12500 ng·h/mL; Activity (Mus musculus [15]): Active; Activity (MDA-MB-361 [16]): Active; Activity (MDA-MB-361 [17]): Active; Activity (Mus musculus [18]): Active; Activity (Mus musculus [19]): Active; IC50 [20]: > 10000 nM
CCn1ncc2c(N3CC4CCC(C3)O4)nc(-c3ccc(NC(=O)Nc4ccc(OCCN5CCOCC5)nc4)cc3)nc21,383,< 0.7 nM,0.8 nM,–,–,1 nM,solubility [6]: > 100 µg/mL
CCn1ncc2c(N3CC4CCC(C3)O4)nc(-c3ccc(NC(=O)Nc4ccc(N(C)CCN(C)C)cc4)cc3)nc21,295,0.8 nM,0.8 nM,256 nM,14 min,0.9 nM,–
CCn1ncc2c(N3CC4CCC(C3)O4)nc(-c3ccc(NC(=O)Nc4ccc(N5CCCC5)cc4)cc3)nc21,243,55 nM,120 nM,–,5 min,–,–
CCn1ncc2c(N3CC4CCC(C3)O4)nc(-c3ccc(NC(=O)Nc4ccc(CN5CCN(C)CC5)cc4)cc3)nc21,451,< 0.8 nM,0.8 nM,320 nM,> 30 min,0.7 nM,–
CN(C)CCn1ncc2c(N3CC4CCC(C3)O4)nc(-c3ccc(NC(=O)Nc4cccnc4)cc3)nc21,89,50 nM,220 nM,–,–,–,–
CCn1ncc2c(N3CC4CCC(C3)O4)nc(-c3ccc(NC(=O)Nc4ccc(CO)cc4)cc3)nc21,335,< 0.7 nM,< 0.7 nM,–,11 min,0.1 nM,–
CCn1ncc2c(N3CC4CCC(C3)O4)nc(-c3ccc(NC(=O)Nc4ccc(CN(C)C)cc4)cc3)nc21,239,7 nM,30 nM,263 nM,29 min,1.1 nM,–
